# Measurements as given in paper PMC9374744, “Structural basis for receptor selectivity and inverse agonism in S1P5 receptors” (Nature Communications, 2022).
# “And” between values parts separate entries of the source, which are not always exact repeats. Equal values may be shown once.
# Experiments:
# [1] = biological target: human S1P5 L318Q mutant (Homo sapiens, UniProt Q9H228, L318Q); experiment: BRET-based cAMP Gi signaling assay, S1P5 L318Q; details: inverse agonism
# [2] = biological target: human S1P5 E112Q mutant (Homo sapiens, UniProt Q9H228, E112Q); experiment: BRET-based cAMP Gi signaling assay, S1P5 E112Q; details: inverse agonism
# [3] = biological target: human S1P5 R111Q mutant (Homo sapiens, UniProt Q9H228, R111Q); experiment: BRET-based cAMP Gi signaling assay, S1P5 R111Q; details: inverse agonism
# [4] = biological target: human S1P5 N92A mutant (Homo sapiens, UniProt Q9H228, N92A); experiment: BRET-based cAMP Gi signaling assay, S1P5 N92A; details: inverse agonism
# [5] = biological target: human S1P5 C43F mutant (Homo sapiens, UniProt Q9H228, C43F); experiment: BRET-based cAMP Gi signaling assay, S1P5 C43F; details: inverse agonism
# [6] = biological target: human S1P5 T79A mutant (Homo sapiens, UniProt Q9H228, T79A); experiment: BRET-based cAMP Gi signaling assay, S1P5 T79A; details: for EC50: inverse agonism; for BRET signal, raw replicates: Suppl. Fig. 6d, listed as ONO
# [7] = Figure 2c source data, N/R = no response
# Chain of human S1P5 C43F mutant (Q9H228 whole entry C43F): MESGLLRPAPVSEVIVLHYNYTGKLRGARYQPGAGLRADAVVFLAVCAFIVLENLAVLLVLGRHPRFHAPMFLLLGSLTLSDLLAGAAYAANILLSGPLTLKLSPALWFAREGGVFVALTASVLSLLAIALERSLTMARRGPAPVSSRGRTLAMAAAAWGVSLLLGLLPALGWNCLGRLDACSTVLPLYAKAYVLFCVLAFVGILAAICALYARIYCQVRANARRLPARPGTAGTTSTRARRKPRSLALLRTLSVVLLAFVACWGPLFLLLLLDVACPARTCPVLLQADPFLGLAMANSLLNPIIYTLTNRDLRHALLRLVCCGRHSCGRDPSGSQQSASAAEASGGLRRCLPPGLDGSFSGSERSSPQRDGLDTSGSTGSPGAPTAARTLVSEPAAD
# Chain of human S1P5 L318Q mutant (Q9H228 whole entry L318Q): as the sequence (Q9H228 whole entry C43F) above, with F43C, L318Q counted along it
# Chain of human S1P5 T79A mutant (Q9H228 whole entry T79A): as the sequence (Q9H228 whole entry C43F) above, with F43C, T79A counted along it
# Chain of human S1P5 R111Q mutant (Q9H228 whole entry R111Q): as the sequence (Q9H228 whole entry C43F) above, with F43C, R111Q counted along it
# Chain of human S1P5 E112Q mutant (Q9H228 whole entry E112Q): as the sequence (Q9H228 whole entry C43F) above, with F43C, E112Q counted along it
# Chain of human S1P5 N92A mutant (Q9H228 whole entry N92A): as the sequence (Q9H228 whole entry C43F) above, with F43C, N92A counted along it
structure (smiles),measurement,setting,value
"O=C(O)CCCN1CCc2cccc(OCCc3cccc4ccccc34)c2CC1 [ONO-5430608, 4-{6-[2-(1-naphthyl)ethoxy]-1,2,4,5-tetrahydro-3H-3-benzazepin-3-yl} butanoic acid]",EC50,"[1]; ONO, pEC50, M, L318Q, mean ± SD, n=3",22.4 nM
same,EC50,"[1]; ONO-5430608 pEC50, single experiments #1-#3, L318Q, Figure 2c source data",23 nM and 24.6 nM and 20.4 nM
same,"ONO-5430608 pEC50, single experiments #1-#3",[2]; [7],N/R
same,"ONO, pEC50, M","[2]; n=3, N/R = no response",N/R
same,"ONO-5430608 pEC50, single experiments #1-#3",[3]; [7],N/R
same,"ONO, pEC50, M","[3]; n=3, N/R = no response",N/R
same,"ONO-5430608 pEC50, single experiments #1-#3",[4]; [7],N/R
same,"ONO, pEC50, M","[4]; n=3, N/R = no response",N/R
same,EC50,"[5]; ONO, pEC50, M, C43F, mean ± SD, n=3",4.47 nM
same,EC50,"[5]; ONO-5430608 pEC50, single experiments #1-#3, C43F, Figure 2c source data",3.91 nM and 4.49 nM and 4.96 nM
same,EC50,"[6]; ONO, pEC50, M, T79A, mean ± SD, n=3",5.13 nM
same,EC50,"[6]; ONO-5430608 pEC50, single experiments #1-#3, T79A, Figure 2c source data",3.81 nM and 5.96 nM and 5.8 nM
same,"BRET signal, raw replicates","[6]; [ONO] 0.169351 nM, T79A",0.7648 and 0.7694 and 0.7618 (2×) and 0.7719 and 0.7737 and 0.7678 and 0.7602 and 0.7581
same,"BRET signal, raw replicates","[6]; [ONO] 0.508053 nM, T79A",0.7658 and 0.7637 (2×) and 0.7584 and 0.7703 and 0.7711 and 0.7719 and 0.7599 and 0.7561
same,"BRET signal, raw replicates","[6]; [ONO] 1.52416 nM, T79A",0.7571 and 0.7588 and 0.7577 and 0.7674 and 0.7689 and 0.7688 and 0.7557 and 0.7543 and 0.7567
same,"BRET signal, raw replicates","[6]; [ONO] 4.57247 nM, T79A",0.7445 and 0.7467 and 0.7472 (2×) and 0.7504 and 0.7523 and 0.7521 and 0.7458 and 0.7451
same,"BRET signal, raw replicates","[6]; [ONO] 13.7174 nM, T79A",0.7344 and 0.7321 and 0.7375 and 0.7326 and 0.7336 and 0.7328 and 0.7266 and 0.7286 and 0.7299
same,"BRET signal, raw replicates","[6]; [ONO] 41.1523 nM, T79A",0.7277 and 0.7202 and 0.7265 and 0.7247 and 0.7224 and 0.7225 and 0.7195 and 0.7262 and 0.7173
same,"BRET signal, raw replicates","[6]; [ONO] 123.457 nM, T79A",0.7246 and 0.7211 and 0.7132 and 0.7206 and 0.7203 and 0.7177 and 0.7146 and 0.7143 and 0.7168
same,"BRET signal, raw replicates","[6]; [ONO] 370.37 nM, T79A",0.7198 and 0.7165 and 0.7203 and 0.7175 and 0.72 and 0.7188 and 0.7152 and 0.7138 and 0.7182
same,"BRET signal, raw replicates","[6]; [ONO] 1111.11 nM, T79A",0.7229 and 0.7217 and 0.7211 and 0.7178 and 0.7185 and 0.7189 and 0.7126 and 0.7148 and 0.7145
same,"BRET signal, raw replicates","[6]; [ONO] 3333.33 nM, T79A",0.7168 and 0.7147 and 0.7207 and 0.7195 and 0.7142 and 0.7166 and 0.7162 and 0.7151 and 0.7155
